Measurements reported in ChEMBL document CHEMBL1201862, “PubChem BioAssay data set” (2004).
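Grown in 96-well plates, cells were treated for 48 hours with each compound at five concentrations. Insufficient inhibition: endpoint recorded as highest concentration tested. GI50 = concentration required for 50% inhibition of growth.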 Calls of active or inactive are those of the source. Cut-off read from the data, not from the text of the source: active = GI50 up to about 1.1 µM and inactive = higher.

Assays:
Assay in all cases: DTP human tumour cell line panel, 48 h
A549 = test system: A549
CCRF-CEM = test system: CCRF-CEM
COLO 205 = test system: COLO 205
EKVX = test system: EKVX
HT-29 = test system: HT-29
IGROV-1 = test system: IGROV-1
LOX IMVI = test system: LOX IMVI
NCI-H460 = test system: NCI-H460
OVCAR-8 = test system: OVCAR-8
RXF 393 = test system: RXF 393
SF-268 = test system: SF-268
SK-MEL-28 = test system: SK-MEL-28
SK-MEL-2 = test system: SK-MEL-2
SR = test system: SR
UACC-257 = test system: UACC-257
UACC-62 = test system: UACC-62
UO-31 = test system: UO-31
A498 = test system: A498

Measured: GI50

CCOC(=O)C(=O)Nc1ccc(C)cc1C
inactive: A549 > 100 µM | CCRF-CEM > 100 µM | COLO 205 > 100 µM | EKVX > 100 µM | HT-29 > 100 µM | IGROV-1 > 100 µM | LOX IMVI > 100 µM | NCI-H460 > 100 µM | OVCAR-8 > 100 µM | RXF 393 > 100 µM | SF-268 > 100 µM | SK-MEL-28 > 100 µM | SK-MEL-2 > 100 µM | SR > 100 µM | UACC-257 > 100 µM | UACC-62 > 100 µM | UO-31 > 100 µM

Oc1ccc(O)c(Sc2nnc(CCCCCCCCc3nnc(Sc4cc(O)ccc4O)o3)o2)c1
inactive: A498 > 100 µM | A549 > 100 µM | COLO 205 48.3 µM | EKVX > 100 µM | HT-29 > 100 µM | IGROV-1 96.8 µM | NCI-H460 72.9 µM | SF-268 73.6 µM | SK-MEL-28 > 100 µM | SK-MEL-2 > 100 µM | UACC-257 > 100 µM | UACC-62 47.5 µM | UO-31 16.6 µM

c1ccc2c(c1)SC(=C1Sc3ccccc3S1)S2
inactive: A549 > 100 µM | CCRF-CEM > 100 µM | COLO 205 > 100 µM | EKVX > 100 µM | HT-29 > 100 µM | IGROV-1 > 100 µM | LOX IMVI 75.7 µM | NCI-H460 55.8 µM | OVCAR-8 > 100 µM | RXF 393 > 100 µM | SF-268 > 100 µM | SK-MEL-28 > 100 µM | UACC-62 > 100 µM | UO-31 > 100 µM

CCCCCCN(CCCCCC)C(=O)Cc1c2n(c3ccccc13)Cc1ccccc1-2
inactive: A549 52.8 µM | CCRF-CEM 28.1 µM | COLO 205 58.5 µM | EKVX 69.8 µM | HT-29 62.8 µM | LOX IMVI 69.8 µM | NCI-H460 63.1 µM | OVCAR-8 44.8 µM | RXF 393 26.5 µM | SF-268 99.1 µM | SK-MEL-28 > 100 µM | SK-MEL-2 49.3 µM | SR 14.9 µM | UACC-257 49.7 µM | UACC-62 > 100 µM | UO-31 44.6 µM

Cc1nc(N)c(-c2ccccc2)s1
inactive: A498 > 32.4 µM | A549 68.9 µM | CCRF-CEM 36.5 µM | COLO 205 > 47 µM | EKVX > 94.6 µM | HT-29 > 58.3 µM | IGROV-1 > 78.2 µM | LOX IMVI 52.4 µM | NCI-H460 51.1 µM | OVCAR-8 > 76.7 µM | RXF 393 > 48.2 µM | SF-268 > 100 µM | SK-MEL-28 > 100 µM | SK-MEL-2 32.3 µM | UACC-257 53.7 µM | UACC-62 > 72.1 µM | UO-31 > 100 µM

Cc1ccc2c(c1)-c1c3c(nn1-c1ccccc1)-c1ccccc1SC3O2 (stereo not drawn)
inactive: A498 > 100 µM | A549 > 100 µM | CCRF-CEM > 100 µM | COLO 205 > 100 µM | EKVX > 100 µM | HT-29 > 100 µM | IGROV-1 > 100 µM | LOX IMVI > 100 µM | NCI-H460 > 100 µM | OVCAR-8 > 100 µM | RXF 393 > 100 µM | SF-268 > 100 µM | SK-MEL-28 > 100 µM | SK-MEL-2 > 100 µM | UACC-257 > 100 µM | UO-31 > 100 µM

CCCN(CCC)C(=O)C(=O)c1c(N)[nH]n(-c2ccccc2)c1=O
inactive: A498 > 100 µM | A549 > 100 µM | CCRF-CEM 93.3 µM | COLO 205 > 100 µM | EKVX > 100 µM | HT-29 > 100 µM | IGROV-1 > 100 µM | LOX IMVI > 100 µM | NCI-H460 > 100 µM | OVCAR-8 > 100 µM | SF-268 > 100 µM | SK-MEL-2 > 100 µM | UACC-257 45.1 µM | UACC-62 > 100 µM | UO-31 > 100 µM

O=C(/C=C/c1ccccc1F)c1ccc([N+](=O)[O-])cc1
inactive: A549 31.4 µM | COLO 205 35.2 µM | EKVX 38.5 µM | HT-29 9.44 µM | IGROV-1 24.3 µM | LOX IMVI 4.35 µM | NCI-H460 30.8 µM | OVCAR-8 25.8 µM | RXF 393 19.5 µM | SF-268 27.2 µM | SK-MEL-28 18.4 µM | UACC-62 22.9 µM | UO-31 11.6 µM

CC(C)c1cc2c(O)c(c1)Cc1cc(C(C)C)cc(c1O)Cc1cc(C(C)C)cc(c1O)Cc1cc(C(C)C)cc(c1O)Cc1cc(C(C)C)cc(c1O)Cc1cc(C(C)C)cc(c1O)C2
inactive: A549 > 100 µM | CCRF-CEM > 100 µM | COLO 205 > 100 µM | EKVX > 100 µM | HT-29 > 100 µM | IGROV-1 > 100 µM | NCI-H460 > 100 µM | OVCAR-8 > 100 µM | RXF 393 > 100 µM | SF-268 > 100 µM | SK-MEL-28 > 100 µM | SK-MEL-2 > 100 µM | UACC-257 > 100 µM | UACC-62 > 100 µM | UO-31 > 100 µM

Cc1cccc2c1nc1n2C(=O)c2ccccc2-1
inactive: A549 > 100 µM | CCRF-CEM > 100 µM | COLO 205 > 100 µM | EKVX > 100 µM | HT-29 > 100 µM | IGROV-1 > 100 µM | NCI-H460 > 100 µM | OVCAR-8 > 100 µM | RXF 393 > 100 µM | SF-268 > 100 µM | SK-MEL-28 > 100 µM | SK-MEL-2 > 100 µM | SR > 100 µM | UACC-257 > 100 µM | UACC-62 > 100 µM | UO-31 > 100 µM

COc1ccc(S(=O)(=O)N[C@H](C(=O)O)c2ccccc2)cc1
inactive: A549 > 100 µM | CCRF-CEM > 100 µM | COLO 205 > 100 µM | EKVX > 100 µM | HT-29 > 100 µM | IGROV-1 > 100 µM | LOX IMVI > 100 µM | NCI-H460 > 100 µM | OVCAR-8 > 100 µM | RXF 393 > 100 µM | SF-268 > 100 µM | SK-MEL-28 > 100 µM | SK-MEL-2 > 100 µM | UACC-257 > 100 µM | UACC-62 > 100 µM | UO-31 > 100 µM

Cc1ccc(S(=O)(=O)NCCCN(CCCNS(=O)(=O)c2ccc(C)cc2)S(=O)(=O)c2ccc(C)cc2)cc1
inactive: A549 > 100 µM | CCRF-CEM > 100 µM | COLO 205 > 100 µM | IGROV-1 > 100 µM | LOX IMVI > 100 µM | NCI-H460 > 100 µM | OVCAR-8 > 100 µM | RXF 393 > 100 µM | SF-268 > 100 µM | SK-MEL-28 > 100 µM | SR 69.7 µM | UACC-257 > 100 µM | UACC-62 > 100 µM | UO-31 > 100 µM

COC(=O)C(=O)CC(=O)CCn1[nH]c(=O)c(Cl)c(Cl)c1=O
inactive: A498 > 100 µM | A549 > 100 µM | COLO 205 > 100 µM | EKVX > 100 µM | HT-29 > 100 µM | IGROV-1 > 100 µM | LOX IMVI > 100 µM | NCI-H460 > 100 µM | OVCAR-8 > 100 µM | RXF 393 > 100 µM | SF-268 > 100 µM | SK-MEL-28 > 100 µM | SK-MEL-2 > 100 µM | UACC-257 > 100 µM | UACC-62 > 100 µM | UO-31 > 100 µM
